# System: 227483-062-R1-J1-PDC complex spheroids with HUVEC/MSC, viability
# Assay: Anticancer human tumor 227483-062-R1-J1-PDC patient-derived pancreatic carcinoma cell line growth inhibition [CLK]
# Conditions: for IC50: curve of first compound; for viability, T/C: stronger effect = lower value
# Outline: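 Multi-cell-type spheroids combined patient-derived tumor cells with HUVEC endothelial cells and human mesenchymal stem cells. Paired agents were dosed in half-log steps down from about clinical Cmax, or from 10 microM where Cmax was unknown.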
# [1] = second compound 0.0316 µM, first compound 0.0316 µM
# [2] = second compound 0.0316 µM, first compound 0.1 µM
# [3] = second compound 0.0316 µM, first compound 0.316 µM
# [4] = second compound 0.0316 µM, first compound 1 µM
# [5] = second compound 0.1 µM, first compound 0.0316 µM
# [6] = second compound 0.1 µM, first compound 0.1 µM
# [7] = second compound 0.1 µM, first compound 0.316 µM
# [8] = second compound 0.1 µM, first compound 1 µM
# [9] = second compound 0.316 µM, first compound 0.0316 µM
# [10] = second compound 0.316 µM, first compound 0.1 µM
# [11] = second compound 0.316 µM, first compound 0.316 µM
# [12] = second compound 0.316 µM, first compound 1 µM
# [13] = second compound 1 µM, first compound 0.0316 µM
# [14] = second compound 1 µM, first compound 0.1 µM
# [15] = second compound 1 µM, first compound 0.316 µM
# [16] = second compound 1 µM, first compound 1 µM
# [17] = second compound 3.16 µM, first compound 0.0316 µM
# [18] = second compound 3.16 µM, first compound 0.1 µM
# [19] = second compound 3.16 µM, first compound 0.316 µM
# [20] = second compound 3.16 µM, first compound 1 µM
# [21] = second compound 10 µM, first compound 0.0316 µM
# [22] = second compound 10 µM, first compound 0.1 µM
# [23] = second compound 10 µM, first compound 0.316 µM
# [24] = second compound 10 µM, first compound 1 µM
# 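Also: spheroids exposed to compounds for seven days before readout.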
# 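For viability, T/C in this document: percent of DMSO vehicle control luminescence as 100% viability.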
smiles,measurement,setting,value
CC(=O)O[C@H]1C(=O)[C@@]2(C)[C@H]([C@H](OC(=O)c3ccccc3)[C@]3(O)C[C@H](OC(=O)[C@H](O)[C@@H](NC(=O)c4ccccc4)c4ccccc4)C(C)=C1C3(C)C)[C@]1(OC(C)=O)CO[C@@H]1C[C@@H]2O + CN1CCN(c2cc(C(=O)Nc3cc4cc(-c5cnn(C)c5)ccc4cn3)ccn2)CC1,IC50,second compound 0.0316 µM,< 31.6 nM
same,IC50,second compound 0.1 µM,< 31.6 nM
same,IC50,second compound 0.316 µM,< 31.6 nM
same,IC50,second compound 1 µM,< 31.6 nM
same,IC50,second compound 3.16 µM,< 31.6 nM
same,IC50,second compound 10 µM,< 31.6 nM
same,"viability, T/C",[1],27.4%
same,"viability, T/C",[2],22.2%
same,"viability, T/C",[3],31.2%
same,"viability, T/C",[4],31.4%
same,"viability, T/C","second compound 0.0316 µM, first compound 3.16 µM",36.9%
same,"viability, T/C","second compound 0.0316 µM, first compound 10 µM",43.8%
same,"viability, T/C",[5],28.6%
same,"viability, T/C",[6],32.8%
same,"viability, T/C",[7],35%
same,"viability, T/C",[8],38%
same,"viability, T/C","second compound 0.1 µM, first compound 3.16 µM",40.7%
same,"viability, T/C","second compound 0.1 µM, first compound 10 µM",40.6%
same,"viability, T/C",[9],2.61%
same,"viability, T/C",[10],6.66%
same,"viability, T/C",[11],2.59%
same,"viability, T/C",[12],4.5%
same,"viability, T/C","second compound 0.316 µM, first compound 3.16 µM",5.51%
same,"viability, T/C","second compound 0.316 µM, first compound 10 µM",6.7%
same,"viability, T/C",[13],1.8%
same,"viability, T/C",[14],2.26%
same,"viability, T/C",[15],3.26%
same,"viability, T/C",[16],4%
same,"viability, T/C","second compound 1 µM, first compound 3.16 µM",1.87%
same,"viability, T/C","second compound 1 µM, first compound 10 µM",2.01%
same,"viability, T/C",[17],7.44%
same,"viability, T/C",[18],3.02%
same,"viability, T/C",[19],3.51%
same,"viability, T/C",[20],2.58%
same,"viability, T/C","second compound 3.16 µM, first compound 3.16 µM",5.48%
same,"viability, T/C","second compound 3.16 µM, first compound 10 µM",4.46%
same,"viability, T/C",[21],1.55%
same,"viability, T/C",[22],1.61%
same,"viability, T/C",[23],1.94%
same,"viability, T/C",[24],1.68%
same,"viability, T/C","second compound 10 µM, first compound 3.16 µM",1.56%
same,"viability, T/C","second compound 10 µM, first compound 10 µM",1.39%
CCc1c2c(nc3ccc(O)cc13)-c1cc3c(c(=O)n1C2)COC(=O)[C@]3(O)CC + CN1CCN(c2cc(C(=O)Nc3cc4cc(-c5cnn(C)c5)ccc4cn3)ccn2)CC1,IC50,second compound 0.0316 µM,276 nM
same,IC50,second compound 0.1 µM,12.9 nM
same,IC50,second compound 0.316 µM,< 3.16 nM
same,IC50,second compound 1 µM,< 3.16 nM
same,IC50,second compound 3.16 µM,< 3.16 nM
same,IC50,second compound 10 µM,< 3.16 nM
same,"viability, T/C","second compound 0.0316 µM, first compound 0.00316 µM",96.7%
same,"viability, T/C","second compound 0.0316 µM, first compound 0.01 µM",99%
same,"viability, T/C",[1],74.9%
same,"viability, T/C",[2],62%
same,"viability, T/C",[3],52.1%
same,"viability, T/C",[4],32.5%
same,"viability, T/C","second compound 0.1 µM, first compound 0.00316 µM",58.4%
same,"viability, T/C","second compound 0.1 µM, first compound 0.01 µM",53.1%
same,"viability, T/C",[5],38.7%
same,"viability, T/C",[6],38.1%
same,"viability, T/C",[7],25.4%
same,"viability, T/C",[8],8.95%
same,"viability, T/C","second compound 0.316 µM, first compound 0.00316 µM",3.53%
same,"viability, T/C","second compound 0.316 µM, first compound 0.01 µM",4.77%
same,"viability, T/C",[9],3.57%
same,"viability, T/C",[10],4.05%
same,"viability, T/C",[11],1.85%
same,"viability, T/C",[12],0.98%
same,"viability, T/C","second compound 1 µM, first compound 0.00316 µM",1.32%
same,"viability, T/C","second compound 1 µM, first compound 0.01 µM",1.1%
same,"viability, T/C",[13],1.61%
same,"viability, T/C",[14],1.38%
same,"viability, T/C",[15],2.57%
same,"viability, T/C",[16],2.01%
same,"viability, T/C","second compound 3.16 µM, first compound 0.00316 µM",4.99%
same,"viability, T/C","second compound 3.16 µM, first compound 0.01 µM",2.04%
same,"viability, T/C",[17],2.02%
same,"viability, T/C",[18],2.48%
same,"viability, T/C",[19],5.26%
same,"viability, T/C",[20],2.04%
same,"viability, T/C","second compound 10 µM, first compound 0.00316 µM",1.98%
same,"viability, T/C","second compound 10 µM, first compound 0.01 µM",1.03%
same,"viability, T/C",[21],0.86%
same,"viability, T/C",[22],2.28%
same,"viability, T/C",[23],0.94%
same,"viability, T/C",[24],0.92%

# Reference: PubChem BioAssay AID2060623 (Molecular Pharmacology Branch, DTP, NCI, 2025)
